Experimental data: patent US9346769B2, “Tetrazolones as inhibitors of fatty acid synthase” (Infinity Pharmaceuticals, Inc., priority 2010, dated 2016)

Biological target: T1, human FASN (Homo sapiens, UniProt P49327)
T1 construct: was purified from SKBR3 cells using procedures modified from those in Jayakumar et al; endogenous in cells; host or cells: SKBR3 human breast cancer cells (ATCC); Endogenous enzyme purified by ammonium sulfate precipitation and a mono Q column
Experiment: FASN Scintillation Proximity Flashplate Assay
Assay type: biochemical
Conditions: human FASN purified from SKBR3 cells; unstarred symbols
Summary of the method: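 Human FASN purified from SKBR3 cells (1 nM final) preincubated with compound 30 min at 37 °C in phosphate buffer pH 7.0, then reacted 2 h at 37 °C with 100 μM acetyl-CoA plus [3H]-acetyl-CoA, 300 μM malonyl-CoA, 2 mM NADPH. Stopped with orlistat; scintillation-proximity CPM gave % inhibition, four-parameter IC50.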

T1 sequence (P49327 whole entry): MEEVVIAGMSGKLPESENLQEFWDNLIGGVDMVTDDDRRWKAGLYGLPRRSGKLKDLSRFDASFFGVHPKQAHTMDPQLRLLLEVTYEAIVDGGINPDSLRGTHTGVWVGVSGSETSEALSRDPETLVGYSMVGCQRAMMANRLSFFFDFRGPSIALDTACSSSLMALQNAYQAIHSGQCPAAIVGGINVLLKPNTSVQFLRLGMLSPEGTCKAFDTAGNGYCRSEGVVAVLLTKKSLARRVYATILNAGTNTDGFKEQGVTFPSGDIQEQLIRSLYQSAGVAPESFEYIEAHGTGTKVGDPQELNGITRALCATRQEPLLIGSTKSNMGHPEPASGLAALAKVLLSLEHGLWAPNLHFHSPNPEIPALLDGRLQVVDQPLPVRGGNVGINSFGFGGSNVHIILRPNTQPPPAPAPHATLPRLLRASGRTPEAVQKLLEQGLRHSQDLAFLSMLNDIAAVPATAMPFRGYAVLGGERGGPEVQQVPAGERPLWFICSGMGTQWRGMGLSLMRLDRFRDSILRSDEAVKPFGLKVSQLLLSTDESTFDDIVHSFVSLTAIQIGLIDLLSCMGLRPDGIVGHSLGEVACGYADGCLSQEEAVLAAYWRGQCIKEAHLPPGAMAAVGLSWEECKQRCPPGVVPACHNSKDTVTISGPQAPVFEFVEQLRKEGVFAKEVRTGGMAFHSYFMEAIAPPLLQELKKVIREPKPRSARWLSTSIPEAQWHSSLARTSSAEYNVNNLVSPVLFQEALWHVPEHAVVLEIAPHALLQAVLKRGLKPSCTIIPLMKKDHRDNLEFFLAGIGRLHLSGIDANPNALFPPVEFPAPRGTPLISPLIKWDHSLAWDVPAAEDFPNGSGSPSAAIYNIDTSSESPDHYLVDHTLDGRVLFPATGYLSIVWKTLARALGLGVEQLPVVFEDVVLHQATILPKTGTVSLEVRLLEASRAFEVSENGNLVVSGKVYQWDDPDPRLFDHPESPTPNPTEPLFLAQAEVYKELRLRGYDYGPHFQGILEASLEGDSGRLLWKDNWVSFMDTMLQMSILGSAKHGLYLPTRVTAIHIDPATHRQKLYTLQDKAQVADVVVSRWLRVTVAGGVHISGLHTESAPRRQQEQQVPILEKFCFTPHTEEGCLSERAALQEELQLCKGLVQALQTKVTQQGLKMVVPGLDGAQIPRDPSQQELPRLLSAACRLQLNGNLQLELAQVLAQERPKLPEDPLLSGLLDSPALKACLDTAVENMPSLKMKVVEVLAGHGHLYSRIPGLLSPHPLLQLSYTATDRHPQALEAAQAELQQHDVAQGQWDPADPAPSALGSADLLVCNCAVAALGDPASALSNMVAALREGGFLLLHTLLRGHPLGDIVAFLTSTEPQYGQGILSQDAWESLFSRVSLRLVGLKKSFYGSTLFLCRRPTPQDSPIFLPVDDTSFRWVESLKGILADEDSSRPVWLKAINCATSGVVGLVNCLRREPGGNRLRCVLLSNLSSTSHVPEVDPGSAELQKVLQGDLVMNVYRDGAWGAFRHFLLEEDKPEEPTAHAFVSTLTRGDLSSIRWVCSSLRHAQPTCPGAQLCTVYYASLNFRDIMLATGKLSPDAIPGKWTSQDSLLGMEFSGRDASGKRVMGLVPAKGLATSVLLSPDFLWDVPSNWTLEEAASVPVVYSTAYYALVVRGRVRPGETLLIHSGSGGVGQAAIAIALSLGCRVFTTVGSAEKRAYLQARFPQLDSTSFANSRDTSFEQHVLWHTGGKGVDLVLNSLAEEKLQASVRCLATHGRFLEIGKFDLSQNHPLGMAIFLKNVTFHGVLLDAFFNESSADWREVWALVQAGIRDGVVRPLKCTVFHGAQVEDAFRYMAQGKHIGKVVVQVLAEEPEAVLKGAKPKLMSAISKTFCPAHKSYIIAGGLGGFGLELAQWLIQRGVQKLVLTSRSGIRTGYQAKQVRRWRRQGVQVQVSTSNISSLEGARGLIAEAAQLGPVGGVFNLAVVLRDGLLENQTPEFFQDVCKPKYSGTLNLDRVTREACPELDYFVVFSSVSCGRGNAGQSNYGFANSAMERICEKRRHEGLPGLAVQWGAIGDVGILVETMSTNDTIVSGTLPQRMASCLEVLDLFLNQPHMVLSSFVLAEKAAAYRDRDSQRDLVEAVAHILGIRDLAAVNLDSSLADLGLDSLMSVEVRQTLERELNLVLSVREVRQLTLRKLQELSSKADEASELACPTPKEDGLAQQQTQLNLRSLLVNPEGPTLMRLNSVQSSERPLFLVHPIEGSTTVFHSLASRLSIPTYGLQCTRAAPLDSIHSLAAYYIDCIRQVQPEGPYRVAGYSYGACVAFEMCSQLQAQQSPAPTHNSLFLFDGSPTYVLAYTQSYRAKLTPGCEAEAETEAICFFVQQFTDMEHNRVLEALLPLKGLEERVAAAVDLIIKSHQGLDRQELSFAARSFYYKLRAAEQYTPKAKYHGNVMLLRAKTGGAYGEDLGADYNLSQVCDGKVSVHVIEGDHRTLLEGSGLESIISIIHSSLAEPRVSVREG

| IC50 | Compound |
| --- | --- |
| < 15 nM | COc1ccccc1-n1nnn(C(=O)N(c2ccc(Br)cc2)c2ccc(C(=O)O)cc2)c1=O |
| < 15 nM | CCCCOc1ccc(C(=O)O)cc1N(CC)C(=O)n1nnn(-c2ccccc2OC)c1=O |
| < 15 nM | COc1ccc(N(C(=O)n2nnn(-c3c(F)cccc3F)c2=O)C(C)C)cc1C(=O)O |
| < 15 nM | O=C(O)c1ccc(F)c(N(C(=O)n2nnn(-c3c(F)cccc3F)c2=O)C2CCCC2)c1 |
| 15 to 100 nM | O=C(N1Cc2cccc3cccc(c23)C1)n1nnn(-c2c(F)cccc2F)c1=O |
| < 15 nM | O=C(N1CCCc2cccc(F)c21)n1nnn(-c2c(F)cccc2F)c1=O |
| 15 to 100 nM | CN(C)c1ccc2c(c1)OC(=O)CC2CC(=O)Nc1cccc2c1CCCN2C(=O)n1nnn(-c2c(F)cccc2F)c1=O (centres unmarked) |
| 200 to 5000 nM | CCN(C(=O)n1nnn(-c2ccccc2Cl)c1=O)C1CCCC1 |
| 200 to 5000 nM | CCCN(C(=O)n1nnn(-c2ccccc2Cl)c1=O)C1CCCC1 |
| 200 to 5000 nM | CN(C)N(C(=O)n1nnn(-c2ccccc2Cl)c1=O)C1CCCC1 |
| 15 to 100 nM | COc1ccc(COC(=O)[C@H]2CC[C@H](N(C(=O)n3nnn(-c4c(F)cccc4OC)c3=O)c3ccccc3)CC2)cc1 |
| 100 to 200 nM | COc1cccc(F)c1-n1nnn(C(=O)N(c2ccccc2)[C@H]2CC[C@H](C(=O)O)CC2)c1=O |
| 15 to 100 nM | CN(C)N(C(=O)n1nnn(-c2ccccc2Cl)c1=O)C1=CCCC1 |
| 15 to 100 nM | CN(C)N(C(=O)n1nnn(-c2ccccc2Br)c1=O)C1=CCCC1 |
| 100 to 200 nM | CN(C)N(C(=O)n1nnn(-c2ccccc2F)c1=O)C1=CCCC1 |
| 15 to 100 nM | CN(C)N(C(=O)n1nnn(-c2c(Cl)cccc2Cl)c1=O)C1=CCCC1 |
| 15 to 100 nM | CN(C)N(C(=O)n1nnn(-c2c(F)cccc2F)c1=O)C1=CCCC1 |
| 100 to 200 nM | CN(C)N(C(=O)n1nnn(-c2ccccc2Cl)c1=O)C1=CCCCCC1 |
| 200 to 5000 nM | CN(C)N(C(=O)n1nnn(-c2ccccc2Cl)c1=O)/C1=C/CCCCCC1 |
| 200 to 5000 nM | CCCN(CC1CC1)C(=O)n1nnn(-c2ccccc2Cl)c1=O |
